# Test results published in US12234227B2, “Pyrazole derivatives as H4 antagonist compounds” (NXERA PHARMA UK LIMITED, priority 2018, dated 2025).
# Structures can show the parent of a compound that is named as a salt.
# Tests used:
# human H4 receptor = molecular target: T1, human H4 receptor (Homo sapiens, UniProt Q9H3N8); experiment: H4 Antagonist Functional cAMP Gi Assay; format: cell-based; details: H4 antagonist activity; for Kb: read-out: Human H4 CAMP fpKb (converted)
# T1 construct: expressed in transfected cells; host or cells: HEKf cells transduced with baculovirus
# Protocol: H4 Antagonist Functional cAMP Gi Assay
# HEKf cells were infected overnight using baculovirus expressing the human H4 receptor, then centrifuged at 1,200 rpm for 5 min, frozen in cell freezing medium (Sigma) and stored at −150° C. On the day of assay, the cells were thawed and resuspended in HBSS with 500 nM IBMX to achieve a density of 1,500 cells/well. H4 ligands were prepared in DMSO and stamped by LabCyte ECHO acoustic dispensing at 25 nL in low volume plates. 10 μL/well cells were plated in the presence of 1 μM forskolin, subjected to centrifugation at 1,200 rpm for 1 min and incubated for 30 min prior to addition of Cisbio cAMP detection reagents to a total volume 20 μL/well. For the antagonist assay, cells were pre-incubated with H4 antagonist ligands for 30 min prior to addition of EC80 concentration of histamine and a further 30 min incubation. Following detection reagent addition and shaking at room temperature for 60 min, cAMP accumulation was measured using HTRF on a PheraStar plate reader. EC50 values were generated using a 4-parameter logistical fit equation to quantify agonist potencies. Functional antagonist affinity values were generated using the Cheng-Prusoff equation to calculate a pKb value using the antagonist assay data.
# hERG = hERG (Homo sapiens, UniProt Q12809); experiment: hERG Assay (QPatch automated patch clamp; single-concentration assay at 30 μM and pIC50 assay); details: for inhibition at 30 µM: human, CHO cells stably expressing hERG
# Sequence of hERG (Q12809 whole entry): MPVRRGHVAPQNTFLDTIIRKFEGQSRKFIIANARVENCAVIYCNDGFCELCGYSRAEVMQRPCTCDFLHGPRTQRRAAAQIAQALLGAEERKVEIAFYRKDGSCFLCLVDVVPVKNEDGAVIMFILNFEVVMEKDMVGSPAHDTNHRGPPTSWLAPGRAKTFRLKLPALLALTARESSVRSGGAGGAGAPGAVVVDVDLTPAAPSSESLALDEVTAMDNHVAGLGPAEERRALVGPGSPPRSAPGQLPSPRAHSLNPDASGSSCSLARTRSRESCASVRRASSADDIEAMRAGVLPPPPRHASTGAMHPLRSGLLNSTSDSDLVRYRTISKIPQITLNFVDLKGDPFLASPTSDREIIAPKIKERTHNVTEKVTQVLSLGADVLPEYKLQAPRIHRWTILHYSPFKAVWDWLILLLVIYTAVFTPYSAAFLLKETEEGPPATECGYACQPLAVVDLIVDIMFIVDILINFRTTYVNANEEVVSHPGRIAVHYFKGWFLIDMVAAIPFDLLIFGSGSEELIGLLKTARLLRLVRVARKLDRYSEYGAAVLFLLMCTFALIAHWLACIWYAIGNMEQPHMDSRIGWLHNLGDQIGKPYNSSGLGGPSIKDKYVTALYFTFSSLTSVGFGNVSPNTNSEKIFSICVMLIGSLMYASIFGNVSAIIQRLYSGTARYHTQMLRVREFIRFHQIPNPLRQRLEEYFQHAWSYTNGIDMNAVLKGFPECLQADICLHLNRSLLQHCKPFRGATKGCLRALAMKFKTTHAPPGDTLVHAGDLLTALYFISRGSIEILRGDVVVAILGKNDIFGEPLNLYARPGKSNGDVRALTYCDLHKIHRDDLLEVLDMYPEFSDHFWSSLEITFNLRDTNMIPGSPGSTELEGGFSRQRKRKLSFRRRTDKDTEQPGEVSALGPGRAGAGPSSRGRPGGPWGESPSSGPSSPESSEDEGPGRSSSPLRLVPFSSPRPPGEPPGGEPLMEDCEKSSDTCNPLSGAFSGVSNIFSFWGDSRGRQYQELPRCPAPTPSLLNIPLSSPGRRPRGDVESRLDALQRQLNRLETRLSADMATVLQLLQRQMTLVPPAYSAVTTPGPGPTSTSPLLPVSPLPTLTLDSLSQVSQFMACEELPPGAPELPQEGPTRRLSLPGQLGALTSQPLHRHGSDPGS
Kb (human H4 receptor) [nM],SMILES,inhibition at 30 µM (hERG) [%],other results
6.31,CN[C@@H]1CCN(c2cc(-c3[nH]nc4c3CCC4)nc(N)n2)C1 [7.4],16,–
50.1,"CN[C@@H]1CCN(c2cc(-c3ccn[nH]3)nc(N)n2)C1 [Example 1-1, (R)-4-(3-(methylamino)pyrrolidin-1-yl)-6-(1H-pyrazol-5-yl)pyrimidin-2-amine]",–,IC50 (hERG): ≥ 100000 nM
794,"CN[C@@H]1CCN(c2cc(-c3ccnn3C)nc(N)n2)C1 [Example 1-2, (R)-4-(1-methyl-1H-pyrazol-5-yl)-6-(3-(methylamino)pyrrolidin-1-yl)pyrimidin-2-amine dihydrochloride]",–,–
39.8,"CN[C@@H]1CCN(c2cc(-c3ccn(C)n3)nc(N)n2)C1 [Example 2-1, (R)-4-(1-methyl-1H-pyrazol-3-yl)-6-(3-(methylamino)pyrrolidin-1-yl)pyrimidin-2-amine]",–,IC50 (hERG): ≥ 100000 nM
50.1,"CN[C@@H]1CCN(c2cc(-c3ccn(C(F)F)n3)nc(N)n2)C1 [Example 2-2, (R)-4-(1-(difluoromethyl)-1H-pyrazol-3-yl)-6-(3-(methylamino)pyrrolidin-1-yl)pyrimidin-2-amine dihydrochloride]",99,–
7.94,"CN[C@@H]1CCN(c2cc(-c3cc(C)n[nH]3)nc(N)n2)C1 [Example 3-1, (R)-4-(3-methyl-1H-pyrazol-5-yl)-6-(3-(methylamino)pyrrolidin-1-yl)pyrimidin-2-amine]",< 1,–
100,"CN[C@@H]1CCN(c2cc(-c3cc(C4CC4)n[nH]3)nc(N)n2)C1 [Example 3-2, dihydrochloride]",39,–
50.1,"CN[C@@H]1CCN(c2cc(-c3cc(C(F)F)n[nH]3)nc(N)n2)C1 [Example 3-3, (R)-4-(3-(difluoromethyl)-1H-pyrazol-5-yl)-6-(3-(methylamino)pyrrolidin-1-yl)pyrimidin-2-amine]",–,–
63.1,"CN[C@@H]1CCN(c2cc(-c3cc(C(F)(F)F)n[nH]3)nc(N)n2)C1 [Example 3-4, (R)-4-(3-(methylamino)pyrrolidin-1-yl)-6-(3-(trifluoromethyl)-1H-pyrazol-5-yl)pyrimidin-2-amine ditrifluoroacetate salt]",45,–
100,Nc1nc(-c2cc(C(F)(F)F)n[nH]2)cc(N2CC[C@@H](N)C2)n1 [Example 3-5],19,–
10,"CCc1cn[nH]c1-c1cc(N2CC[C@@H](NC)C2)nc(N)n1 [Example 4-2, (R)-4-(4-ethyl-1H-pyrazol-5-yl)-6-(3-(methylamino)pyrrolidin-1-yl)pyrimidin-2-amine]",25,–
79.4,"CN[C@@H]1CCN(c2cc(-c3[nH]ncc3OC)nc(N)n2)C1 [Example 4-4, (R)-4-(4-methoxy-1H-pyrazol-5-yl)-6-(3-(methylamino)pyrrolidin-1-yl)pyrimidin-2-amine]",14,–
398,"CN[C@@H]1CCN(c2cc(-c3cc(C)n(C)n3)nc(N)n2)C1 [Example 5-1, diformate]",–,–
398,CN[C@@H]1CCN(c2cc(-c3cc(C)n(C(F)F)n3)nc(N)n2)C1 [Example 5-2],71,–
20,CN[C@@H]1CCN(c2cc(-c3nn(C)cc3C)nc(N)n2)C1 [Example 6-1],12,–
39.8,CN[C@@H]1CCN(c2cc(-c3nn(C(F)F)cc3C)nc(N)n2)C1 [Example 6-2],94,–
0.251,CN[C@@H]1CCN(c2cc(-c3[nH]nc(C)c3Cl)nc(N)n2)C1 [Example 7-2],39,–
398,Cc1n[nH]c(-c2cc(N3CC[C@@H](N)C3)nc(N)n2)c1C [Example 7-6],–,–
2,Cc1n[nH]c(-c2cc(N3CC[C@@H](N)C3)nc(N)n2)c1Cl [Example 7-7],30,–
126,CCc1n[nH]c(-c2cc(N3CC[C@@H](N)C3)nc(N)n2)c1C [Example 7-8],–,–
100,CN[C@@H]1CCN(c2cc(-c3cn[nH]c3)nc(N)n2)C1 [Example 8-1],–,IC50 (hERG): ≥ 100000 nM
39.8,"CCn1cc(-c2cc(N3CC[C@@H](NC)C3)nc(N)n2)cn1 [Example 8-3, dihydrochloride]",12,–
251,CN[C@@H]1CCN(c2cc(-c3cnn(C4CCC4)c3)nc(N)n2)C1 [Example 8-5],77,–
20,CN[C@@H]1CCN(c2cc(-c3cnn(C(F)F)c3)nc(N)n2)C1 [Example 8-6],–,IC50 (hERG): 6310 nM
398,"CN[C@@H]1CCN(c2cc(-c3cnn(CC(F)(F)F)c3)nc(N)n2)C1 [Example 8-8, dihydrochloride]",44,–
631,CN[C@@H]1CCN(c2cc(-c3cnn(CCO)c3)nc(N)n2)C1 [Example 8-9],–,–
501,CN[C@@H]1CCN(c2cc(-c3cnn(C4COC4)c3)nc(N)n2)C1 [Example 8-11],–,–

Kb (human H4 receptor) [nM],SMILES,inhibition at 30 µM (hERG) [%],other results
794,CN[C@@H]1CCN(c2cc(-c3cnn(CCC#N)c3)nc(N)n2)C1 [Example 8-12],–,–
200,CN[C@@H]1CCN(c2cc(-c3cnn(CC#N)c3)nc(N)n2)C1 [Example 8-13],–,–
794,CCOC(=O)N1CCCC(n2cc(-c3cc(N4CC[C@@H](NC)C4)nc(N)n3)cn2)C1 (stereo partly shown) [Example 8-14],–,–
2.51,"Nc1nc(-c2cnn(C(F)(F)F)c2)cc(N2CC[C@@H](N)C2)n1 [Example 8-15, dihydrochloride]",44,IC50 (hERG): ≥ 100000 nM
50.1,"CCn1cc(-c2cc(N3CC[C@@H](N)C3)nc(N)n2)cn1 [Example 8-17, dihydrochloride]",10,–
501,"Nc1nc(-c2cnn(CC(F)(F)F)c2)cc(N2CC[C@@H](N)C2)n1 [Example 8-18, dihydrochloride]",–,–
12.6,CCc1[nH]ncc1-c1cc(N2CC[C@@H](NC)C2)nc(N)n1 [Example 9-2],12,–
–,CN[C@@H]1CCN(c2cc(-c3cn[nH]c3C3CC3)nc(N)n2)C1.O=C(O)C(F)(F)F.O=C(O)C(F)(F)F [Example 9-4],–,"Human H4 CAMP fpKb (human H4 receptor): 7.6; hERG % inhibition at 30 μM (hERG; single concentration 30 μM, QPatch): 17%"
39.8,CN[C@@H]1CCN(c2cc(-c3cn[nH]c3C(F)F)nc(N)n2)C1 [Example 9-5],–,–
501,"CN[C@@H]1CCN(c2cc(-c3cn(C)nc3C3CC3)nc(N)n2)C1 [Example 11-3, dihydrochloride]",34,–
316,"CN[C@@H]1CCN(c2cc(-c3cn(C)nc3C(F)(F)F)nc(N)n2)C1 [Example 11-4, dihydrochloride]",46,–
794,CN[C@@H]1CCN(c2cc(-c3cn(C)nc3C#N)nc(N)n2)C1 [Example 11-5],–,–
251,CN[C@@H]1CCN(c2cc(-c3cnn(C)c3C#N)nc(N)n2)C1 [Example 12-2],14,–
158,"CN[C@@H]1CCN(c2cc(-c3cnn4c3CCC4)nc(N)n2)C1 [Example 12-4, dihydrochloride]",1,–
3.16,CCc1cc(-c2cc(N3CC[C@@H](NC)C3)nc(N)n2)[nH]n1 [Example 15-1],68,–
31.6,"CN[C@H]1CCN(c2cc(-c3[nH]ncc3C)nc(N)n2)C1 [Example 16-1, ditrifluoroacetate]",32,–
50.1,"CNC1(C)CCN(c2cc(-c3[nH]ncc3C)nc(N)n2)C1 (stereo not shown) [Example 16-2, ditrifluoroacetate]",9,–
7.94,"CNC1CN(c2cc(-c3[nH]ncc3C)nc(N)n2)C1 [Example 16-3, ditrifluoroacetate]",–,–
398,"Cc1cn[nH]c1-c1cc(N2CC(N)C2)nc(N)n1 [Example 16-4, ditrifluoroacetate]",–,–
20,"CNC1(C)CN(c2cc(-c3[nH]ncc3C)nc(N)n2)C1 [Example 16-5, ditrifluoroacetate]",–,–
12.6,"CN[C@@H]1CCN(c2cc(-c3[nH]ncc3F)nc(N)n2)C1 [Example 16-10, ditrifluoroacetate]",21,–
7.94,Nc1nc(-c2[nH]ncc2Cl)cc(N2CC[C@@H](N)C2)n1 [Example 16-11],27,–
5.01,CN[C@@H]1CCN(c2cc(-c3[nH]nc(C)c3C(F)(F)F)nc(N)n2)C1 [Example 17-2],39,–
0.251,"CN[C@@H]1CCN(c2cc(-c3[nH]nc(C(F)F)c3C)nc(N)n2)C1 [Example 17-10, ditrifluoroacetate]",57,–
1.58,CN[C@@H]1CCN(c2cc(-c3[nH]nc(C(F)(F)F)c3C)nc(N)n2)C1 [Example 17-12],60,–
0.0631,"CN[C@@H]1CCN(c2cc(-c3[nH]nc(Cl)c3C)nc(N)n2)C1 [Example 17-14, dihydrochloride]",44,–
0.0501,CN[C@@H]1CCN(c2cc(-c3[nH]nc(Cl)c3Cl)nc(N)n2)C1 [Example 17-15],75,–

SMILES,Kb (human H4 receptor) [nM],inhibition at 30 µM (hERG) [%],other results
Cc1cn[nH]c1-c1cc(N2CC3CCNC3C2)nc(N)n1 (stereo not shown) [Example 16-6],631,–,–
